Reference: US11033539B2, “Compounds of formulas (VII), (VIII), (IX), (XI), (XII), (XIII), and (XIV) as muscarinic receptor 4(M4) antagonists for treating neurological diseases” (Neurocrine Biosciences, Inc., priority 2015, dated 2021)

How the values were obtained:
human M1 receptor = human M1 receptor (Homo sapiens (Human), UniProt P11229); experiment: Radioligand (tritiated N-methylscopolamine) binding assay, M1; conditions: CHO cell membranes expressing human M1; 1.5 nM tritiated N-methylscopolamine; 90 min, 37° C.; read-out: Ki against M1 receptor (Table 21, M1)
Chain of human M1 receptor (P11229 whole entry): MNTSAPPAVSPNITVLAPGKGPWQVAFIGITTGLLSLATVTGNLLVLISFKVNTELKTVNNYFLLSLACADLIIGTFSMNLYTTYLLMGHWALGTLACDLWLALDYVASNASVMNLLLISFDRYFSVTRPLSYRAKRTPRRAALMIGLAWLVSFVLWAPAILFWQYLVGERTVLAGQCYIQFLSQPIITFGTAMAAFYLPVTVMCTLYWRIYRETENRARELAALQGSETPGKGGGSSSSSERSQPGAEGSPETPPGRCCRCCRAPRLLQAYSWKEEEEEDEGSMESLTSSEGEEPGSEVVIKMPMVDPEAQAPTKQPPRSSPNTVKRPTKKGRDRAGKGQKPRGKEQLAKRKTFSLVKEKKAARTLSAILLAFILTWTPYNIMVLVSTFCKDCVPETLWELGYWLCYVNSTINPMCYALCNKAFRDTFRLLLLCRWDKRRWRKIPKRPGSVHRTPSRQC
Experimental: (§1) Binding affinity (Ki) of compounds was measured by inhibition of radioligand binding to membranes from CHO cells expressing human M1, M2, M3, M4 and M5 receptors. Membranes were prepared by nitrogen cavitation and differential centrifugation as previously described (Hoare et al., Mol. Pharmacol. 2003 March; 63(3): 751-65). The radioligand employed was tritiated N-methylscopolamine, used at a concentration of 1.5 nM. A dose-response of twelve concentrations of compound was used, ranging from 10 μM to […]. The assay buffer was 50 mM HEPES, 100 mM NaCl, 5 mM MgCl2, 1 mM ethylenediaminetetraacetic acid, pH-adjusted to pH 7.4. Membranes, radioligand and compound were incubated together for 90 minutes at 37° C., in a total volume of 150 μl in a 96-well plate. Receptor-bound radioligand was then collected by harvesting the assay over glass fiber filters pretreated with polyethylenimine to trap the cell membranes, using rapid vacuum filtration. Harvesting and radioactivity counting was conducted as previously described (see, e.g., Hoare et al., Mol. Pharmacol. 2003 63(3):751-65); Erratum at Mol. Pharmacol. 2005 July; 68(1): 260).

human M2 receptor = human M2 receptor (Homo sapiens (Human), UniProt P08172); experiment: Radioligand (tritiated N-methylscopolamine) binding assay, M2; conditions: CHO cell membranes expressing human M2; 1.5 nM tritiated N-methylscopolamine; 90 min, 37° C.; read-out: Ki against M2 receptor (Table 21, M2)
Chain of human M2 receptor (P08172 whole entry): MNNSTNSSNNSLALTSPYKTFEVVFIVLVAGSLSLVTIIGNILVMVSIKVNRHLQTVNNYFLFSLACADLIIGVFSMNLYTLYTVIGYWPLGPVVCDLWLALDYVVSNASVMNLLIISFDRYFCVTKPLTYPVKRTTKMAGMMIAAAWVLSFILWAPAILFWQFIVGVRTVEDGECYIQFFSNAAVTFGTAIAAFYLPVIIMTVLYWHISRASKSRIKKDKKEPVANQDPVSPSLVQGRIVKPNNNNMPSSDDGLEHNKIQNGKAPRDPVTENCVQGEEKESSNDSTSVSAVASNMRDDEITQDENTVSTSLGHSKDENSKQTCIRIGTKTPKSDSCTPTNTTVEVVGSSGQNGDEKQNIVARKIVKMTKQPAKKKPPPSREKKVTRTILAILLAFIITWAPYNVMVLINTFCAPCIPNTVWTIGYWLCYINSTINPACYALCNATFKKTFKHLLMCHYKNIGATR
Experimental: as §1

human M3 receptor = human M3 receptor (Homo sapiens (Human), UniProt P20309); experiment: Radioligand (tritiated N-methylscopolamine) binding assay, M3; conditions: CHO cell membranes expressing human M3; 1.5 nM tritiated N-methylscopolamine; 90 min, 37° C.; read-out: Ki against M3 receptor (Table 21, M3)
Chain of human M3 receptor (P20309 whole entry): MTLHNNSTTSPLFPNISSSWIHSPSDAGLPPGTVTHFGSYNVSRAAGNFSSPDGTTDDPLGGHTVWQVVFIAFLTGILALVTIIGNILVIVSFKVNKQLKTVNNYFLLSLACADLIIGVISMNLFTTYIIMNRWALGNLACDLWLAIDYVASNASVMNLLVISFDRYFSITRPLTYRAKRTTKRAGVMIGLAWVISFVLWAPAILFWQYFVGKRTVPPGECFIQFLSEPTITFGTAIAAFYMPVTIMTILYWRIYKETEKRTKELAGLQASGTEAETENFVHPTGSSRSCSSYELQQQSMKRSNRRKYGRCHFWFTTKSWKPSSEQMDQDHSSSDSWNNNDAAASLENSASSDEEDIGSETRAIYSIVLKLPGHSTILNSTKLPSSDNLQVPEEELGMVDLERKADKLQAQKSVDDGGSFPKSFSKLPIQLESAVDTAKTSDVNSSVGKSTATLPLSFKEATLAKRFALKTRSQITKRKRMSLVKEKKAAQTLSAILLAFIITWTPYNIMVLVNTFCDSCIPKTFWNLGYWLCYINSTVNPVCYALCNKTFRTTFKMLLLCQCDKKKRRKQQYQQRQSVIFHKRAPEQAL
Experimental: as §1

human M4 receptor = human M4 receptor (Homo sapiens (Human), UniProt P08173); experiment: Radioligand (tritiated N-methylscopolamine) binding assay, M4; conditions: Ki against the M4 receptor; membranes from CHO cells expressing human M4; tritiated N-methylscopolamine 1.5 nM; read-out: Ki
Chain of human M4 receptor (P08173 whole entry): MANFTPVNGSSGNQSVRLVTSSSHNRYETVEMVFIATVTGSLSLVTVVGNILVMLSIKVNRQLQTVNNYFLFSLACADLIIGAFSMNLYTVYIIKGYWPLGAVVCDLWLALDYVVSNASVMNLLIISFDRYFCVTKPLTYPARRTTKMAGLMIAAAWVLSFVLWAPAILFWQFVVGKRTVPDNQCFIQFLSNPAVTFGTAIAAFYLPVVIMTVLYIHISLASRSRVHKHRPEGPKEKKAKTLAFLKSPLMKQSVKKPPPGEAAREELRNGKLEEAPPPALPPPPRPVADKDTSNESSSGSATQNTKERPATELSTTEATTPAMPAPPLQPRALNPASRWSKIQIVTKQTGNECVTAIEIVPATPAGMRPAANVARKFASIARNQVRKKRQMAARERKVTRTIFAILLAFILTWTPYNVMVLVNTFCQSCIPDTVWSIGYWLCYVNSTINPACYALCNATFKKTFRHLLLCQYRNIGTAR
Summary of the method: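 Ki from displacement of 1.5 nM [3H]N-methylscopolamine on membranes of CHO cells expressing each human receptor. Twelve compound concentrations (10 μM to […]), 90 min at 37° C in 50 mM HEPES, 100 mM NaCl, 5 mM MgCl2, 1 mM EDTA, pH 7.4. Bound ligand was captured by PEI-treated glass-fiber filtration and counted.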

human M5 receptor = human M5 receptor (Homo sapiens (Human), UniProt P08912); experiment: Radioligand (tritiated N-methylscopolamine) binding assay, M5; conditions: CHO cell membranes expressing human M5; 1.5 nM tritiated N-methylscopolamine; 90 min, 37° C.; read-out: Ki against M5 receptor (Table 21, M5)
Chain of human M5 receptor (P08912 whole entry): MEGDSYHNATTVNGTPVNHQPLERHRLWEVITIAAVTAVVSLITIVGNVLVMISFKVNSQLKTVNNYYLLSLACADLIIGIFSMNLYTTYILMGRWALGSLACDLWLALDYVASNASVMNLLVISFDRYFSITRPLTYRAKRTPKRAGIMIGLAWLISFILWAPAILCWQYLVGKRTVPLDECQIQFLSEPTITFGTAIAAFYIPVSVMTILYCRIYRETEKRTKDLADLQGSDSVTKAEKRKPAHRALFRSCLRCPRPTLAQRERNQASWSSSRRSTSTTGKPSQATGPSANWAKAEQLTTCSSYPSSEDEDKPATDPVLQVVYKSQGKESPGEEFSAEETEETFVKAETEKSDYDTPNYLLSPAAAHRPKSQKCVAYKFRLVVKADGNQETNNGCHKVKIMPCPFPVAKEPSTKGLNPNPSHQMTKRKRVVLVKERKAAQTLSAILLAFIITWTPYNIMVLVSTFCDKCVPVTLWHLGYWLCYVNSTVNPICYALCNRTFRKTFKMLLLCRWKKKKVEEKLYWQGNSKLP
Experimental: as §1

Ki (human M1 receptor) [nM] | Ki (human M2 receptor) [nM] | Ki (human M3 receptor) [nM] | Ki (human M4 receptor) [nM] | Ki (human M5 receptor) [nM] | SMILES
100 to 1000 | 10 to 100 | > 1000 | < 10 | > 1000 | C[C@H]1CN(c2ccc(F)c(C#N)c2)CCN1C(=O)NCCC1CCN(Cc2ccccc2)CC1 [4-20, (2S)-N-[2-(1-benzylpiperidin-4-yl)ethyl]-4-(3-cyano-4-fluorophenyl)-2-methylpiperazine-1-carboxamide]
100 to 1000 | 10 to 100 | 100 to 1000 | < 10 | > 1000 | C[C@H]1CN(c2ccc(OC(F)(F)F)c(C#N)c2)CCN1C(=O)NCCC1CCN(Cc2ccccc2)CC1 [4-21, (2S)-N-[2-(1-benzylpiperidin-4-yl)ethyl]-4-[3-cyano-4-(trifluoromethoxy)phenyl]-2-methylpiperazine-1-carboxamide]
> 1000 | 100 to 1000 | > 1000 | < 10 | 100 to 1000 | C[C@@H]1CN(C(=O)NCCC2CCN(Cc3ccccc3)CC2)CCN1c1ccc(OC(F)(F)F)c(F)c1 [4-22, (3R)-N-[2-(1-benzylpiperidin-4-yl)ethyl]-4-[3-fluoro-4-(trifluoromethoxy)phenyl]-3-methylpiperazine-1-carboxamide]
100 to 1000 | 10 to 100 | 100 to 1000 | < 10 | > 1000 | C[C@@H]1CN(c2cc(F)c(F)c(Cl)c2)CCN1C(=O)NCCC1CCN(Cc2ccccc2)CC1 [4-52, (2R)-N-[2-(1-benzylpiperidin-4-yl)ethyl]-4-(3-chloro-4,5-difluorophenyl)-2-methylpiperazine-1-carboxamide]
100 to 1000 | 10 to 100 | 100 to 1000 | < 10 | 100 to 1000 | C[C@H]1CN(c2ccc(OC(F)(F)F)c(F)c2)CCN1C(=O)NCCC1CCN(Cc2ccccc2)CC1 [4-53, (2S)-N-[2-(1-benzylpiperidin-4-yl)ethyl]-4-[3-fluoro-4-(trifluoromethoxy)phenyl]-2-methylpiperazine-1-carboxamide]
100 to 1000 | 10 to 100 | 100 to 1000 | < 10 | 100 to 1000 | C[C@@H]1CN(c2cc(F)c(OC(F)(F)F)c(F)c2)CCN1C(=O)NCCC1CCN(Cc2ccccc2)CC1 [4-60, (2R)-N-[2-(1-benzylpiperidin-4-yl)ethyl]-4-[3,5-difluoro-4-(trifluoromethoxy)phenyl]-2-methylpiperazine-1-carboxamide]
100 to 1000 | 100 to 1000 | > 1000 | < 10 | > 1000 | C[C@@H]1CN(c2cccc(C#N)c2)CCN1C(=O)NCCC1CCN(Cc2ccccc2)CC1 [4-68, (2R)-N-[2-(1-benzylpiperidin-4-yl)ethyl]-4-(3-cyanophenyl)-2-methylpiperazine-1-carboxamide]
100 to 1000 | 100 to 1000 | > 1000 | < 10 | > 1000 | C[C@H]1CN(C(=O)NCCC2CCN(Cc3ccccc3)CC2)CCN1c1cc(F)c(F)c(F)c1 [4-71, (3S)-N-[2-(1-benzylpiperidin-4-yl)ethyl]-3-methyl-4-(3,4,5-trifluorophenyl)piperazine-1-carboxamide]
100 to 1000 | 10 to 100 | 100 to 1000 | < 10 | > 1000 | C[C@@H]1CN(c2ccc(C(F)(F)F)cc2F)CCN1C(=O)NCCC1CCN(Cc2ccccc2)CC1 [4-73, (2R)-N-[2-(1-benzylpiperidin-4-yl)ethyl]-4-[2-fluoro-4-(trifluoromethyl)phenyl]-2-methylpiperazine-1-carboxamide]
> 1000 | 100 to 1000 | > 1000 | < 10 | > 1000 | O=C(NCCC1CCN(Cc2ccccc2)CC1)N1CCN(c2ccc(C(F)(F)F)cc2)CC1 [4-76, N-[2-(1-benzylpiperidin-4-yl)ethyl]-4-[4-(trifluoromethyl)phenyl]piperazine-1-carboxamide]
100 to 1000 | 10 to 100 | > 1000 | < 10 | > 1000 | O=C(NCCC1CCN(Cc2ccccc2)CC1)N1CCN(c2ccc(C(F)(F)F)cn2)CC1 [4-77, N-[2-(1-benzylpiperidin-4-yl)ethyl]-4-[5-(trifluoromethyl)pyridin-2-yl]piperazine-1-carboxamide]
100 to 1000 | 10 to 100 | > 1000 | < 10 | > 1000 | C[C@@H]1CN(c2cnc(C(F)(F)F)nc2)CCN1C(=O)NCCC1CCN(Cc2ccccc2)CC1 [4-79, (2R)-N-[2-(1-benzylpiperidin-4-yl)ethyl]-2-methyl-4-[2-(trifluoromethyl)pyrimidin-5-yl]piperazine-1-carboxamide]
100 to 1000 | 100 to 1000 | > 1000 | < 10 | > 1000 | C[C@@H]1CN(c2cnc(C#N)nc2)CCN1C(=O)NCCC1CCN(Cc2ccccc2)CC1 [4-80, (2R)-N-[2-(1-benzylpiperidin-4-yl)ethyl]-4-(2-cyanopyrimidin-5-yl)-2-methylpiperazine-1-carboxamide]
> 1000 | 100 to 1000 | > 1000 | < 10 | > 1000 | C[C@@H]1CN(c2ncc(C#N)c(N)n2)CCN1C(=O)NCCC1CCN(Cc2ccccc2)CC1 [5-1, (2R)-4-(4-amino-5-cyanopyrimidin-2-yl)-N-[2-(1-benzylpiperidin-4-yl)ethyl]-2-methylpiperazine-1-carboxamide]
100 to 1000 | 100 to 1000 | > 1000 | < 10 | > 1000 | C[C@@H]1CN(c2nc(Cl)cc(C#N)n2)CCN1C(=O)NCCC1CCN(Cc2ccccc2)CC1 [5-5, (2R)-N-[2-(1-benzylpiperidin-4-yl)ethyl]-4-(4-chloro-6-cyanopyrimidin-2-yl)-2-methylpiperazine-1-carboxamide]
> 1000 | 10 to 100 | 100 to 1000 | < 10 | > 1000 | C[C@@H]1CN(c2nccc(C(F)(F)F)n2)CCN1C(=O)NCCC1CCN(Cc2ccccc2)CC1 [5-8, (2R)-N-[2-(1-benzylpiperidin-4-yl)ethyl]-2-methyl-4-[4-(trifluoromethyl)pyrimidin-2-yl]piperazine-1-carboxamide]
100 to 1000 | 100 to 1000 | 100 to 1000 | < 10 | > 1000 | COc1nc(N2C[C@@H](C)N(C(=O)NCCC3CCN(Cc4ccccc4)CC3)[C@@H](C)C2)ncc1C#N [5-17, (2R,6S)-N-[2-(1-benzylpiperidin-4-yl)ethyl]-4-(5-cyano-4-methoxypyrimidin-2-yl)-2,6-dimethylpiperazine-1-carboxamide]
> 1000 | 10 to 100 | > 1000 | < 10 | > 1000 | C[C@@H]1CN(c2ncc(Cl)cn2)C[C@H](C)N1C(=O)NCCC1CCN(Cc2ccccc2)CC1 [5-18, (2S,6R)-N-[2-(1-benzylpiperidin-4-yl)ethyl]-4-(5-chloropyrimidin-2-yl)-2,6-dimethylpiperazine-1-carboxamide]
100 to 1000 | 10 to 100 | > 1000 | < 10 | > 1000 | C[C@@H]1CN(c2ncc(Cl)cn2)CCN1C(=O)NCCC1CCN(Cc2ccccc2)CC1 [5-22, (2R)-N-[2-(1-benzylpiperidin-4-yl)ethyl]-4-(5-chloropyrimidin-2-yl)-2-methylpiperazine-1-carboxamide]
100 to 1000 | 10 to 100 | > 1000 | < 10 | > 1000 | CNc1nc(N2CCN(C(=O)NCCC3CCN(Cc4ccccc4)CC3)[C@H](C)C2)ncc1C#N [5-23, (2R)-N-[2-(1-benzylpiperidin-4-yl)ethyl]-4-[5-cyano-4-(methylamino)pyrimidin-2-yl]-2-methylpiperazine-1-carboxamide]

SMILES | Ki (human M1 receptor) [nM] | Ki (human M2 receptor) [nM] | Ki (human M3 receptor) [nM] | Ki (human M4 receptor) [nM] | Ki (human M5 receptor) [nM]
C[C@@H]1CN(c2ncc(C#N)cn2)C[C@H](C)N1C(=O)NCCC1CCN(Cc2ccccc2)CC1 [5-20, (2S,6R)-N-[2-(1-benzylpiperidin-4-yl)ethyl]-4-(5-cyanopyrimidin-2-yl)-2,6-dimethylpiperazine-1-carboxamide] | > 1000 | 100 to 1000 | > 1000 | < 10 | > 1000
